Laboratory results: patent publication US12128034B2, “Combinations of beta-lactam compounds, probenecid, and valproic acid and uses thereof” (Iterum Therapeutics International Limited, priority 2020, dated 2024)
One block for each compound: values may come before it.

Assays:
[1] = may result in loss of seizure control; cited from earlier work
[2] = Dacey and Sande 1974; cited from earlier work
clinical = settings: in vivo; for AUC(0-t): AUC0-t; for AUC: AUC0-tau
Procedure: For Cohorts 2 and 3, all patients were administered valproic acid daily. Starting on the fifth day, Cohort 3 was administered the sulopenem etzadroxil tablet (“Etzadroxil Tablet”) alone and Cohort 2 was administered the bilayer tablet of sulopenem etzadroxil and probenecid (500 mg sulopenem etzadroxil+500 mg probenecid film-coated bilayer tablet; “Bilayer Tablet”).

[3] = in vivo
Porphyromonas gingivalis = settings: Ednie and Appelbaum 2009; cited from earlier work

time at which the impact of probenecid on valproic acid bioavailability can occur (clinical; human): as early as three days
SMILES: CCCN(CCC)S(=O)(=O)c1ccc(C(=O)O)cc1 [probenecid]
concentrations of β-lactam compounds in the cerebrospinal fluid [2]: increase

tlast, Mean (SD) (clinical; male, human): 11.920 (0.0000) h
AUC0-t, Mean (SD) (clinical; male, human, po): 570.83 (122.096) h · μg/mL
AUC0-tau, Mean (SD) (clinical; male, human, po): 554.71 (140.804) h · μg/mL
Tmax (clinical; male, human, po): 4 h
tmax, Median (min, max) (clinical; male, human, po): 4.000 (2.00, 5.00) h
AUC(0-t) (clinical; male, human, po, GM (CV %)): 517 µg·h/mL
AUC(0-t) (clinical; male, human, po, Mean (SD)): 522 µg·h/mL
AUC (clinical; male, human, po, GM (CV %)): 518 µg·h/mL
AUC (clinical; male, human, po, Mean (SD)): 522 µg·h/mL
SMILES: CCCC(CCC)C(=O)O [VPA, valproic acid]
tolerability and safety [3]: well tolerated and safe

effect on the steady-state pharmacokinetic profile of valproic acid (clinical): weak effect
SMILES: C[C@@H](O)[C@H]1C(=O)N2C(C(=O)O)=C(S[C@H]3CC[S@@+]([O-])C3)S[C@H]12 [sulopenem]
activity against Porphyromonas gingivalis (Porphyromonas gingivalis): active
tolerability and safety [3]: well tolerated and safe

Second part, the compound before the results:

SMILES: C[C@@H](O)[C@H]1C(=O)N2C(C(=O)O)=C(SCCN=CN)C[C@H]12 [imipenem]
serum valproic acid concentration in patients receiving carbapenem antibiotics [1]: clinically significant reduction

SMILES: C[C@@H](O)[C@H]1C(=O)N2C(C(=O)O)=C(S[C@@H]3CN[C@H](C(=O)Nc4cccc(C(=O)O)c4)C3)[C@H](C)[C@H]12 [ertapenem]
serum valproic acid concentration in patients receiving carbapenem antibiotics [1]: clinically significant reduction

SMILES: C[C@@H](O)[C@H]1C(=O)N2C(C(=O)O)=C(S[C@@H]3CN[C@H](C(=O)N(C)C)C3)[C@H](C)[C@H]12 [meropenem]
serum valproic acid concentration in patients receiving carbapenem antibiotics [1]: clinically significant reduction
